These are literature values, as cited in patent publication US20140044685A1, “NUTRITIONAL COMPOSITIONS HAVING ALPHA-HICA AND CITRULLINE” (NESTEC S.A., priority 2011, published 2014).

SMILES strings stand for the structures.

The conditions of series [1]: piglet stressed with LPS.
Series [2] deals with intestinal mammalian target of rapamycin (mTOR). Conditions: piglet stressed with LPS; leading to increased protein synthesis and anti-inflammatory responses.
For series [3] the following is noted: malnourished aged animals.

Take `O=C(O)CCC(=O)C(=O)O` [AKG, α-ketoglutarate]: in series [1], the crypt depth result is “reduced” and the villous height entry was “increased”. Also, the “phosphorylation of intestinal mammalian target of rapamycin (mTOR)” value in series [2] is recorded as “increased”.
For the compound `NC(=O)NCCC[C@H](N)C(=O)O` [Citrulline, citrulline], in series [3], the anabolic effect result is reported as “anabolic effect”.
